Data reported in PubChem BioAssay (NCI).
Values joined by “and” are separate entries in the source; they are usually repeats but may differ in a detail not shown here. Identical values can stand only once.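 Values below derive from 48-hour exposures of cells grown in 96-well plates, with endpoints linearly interpolated between the two concentrations bracketing the appropriate inhibition level. GI50 marks 50% less growth. TGI marks complete inhibition of growth.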 Starred links: 1 amine or outer side, 2 acyl side, 3 side chain; linkers in the order of their positions; H or OH if unused. Positions of bridges follow the written chain, without caps; N, C: chain ends. Non-standard residues stand in square brackets, D forms with d. Residues, ends and D or L forms follow the SMILES beside them. Chains are numbered I, II in the order given. Actinocin(9to1) = Cc1c2oc3c(C)ccc(C(=O)[*:1])c3nc-2c(C(=O)[*:2])c(N)c1=O; NMeY = CN[CH](Cc1ccc(O)cc1)C(=O)O; Sar = CNCC(=O)O

What was measured:
Assay in all cases: DTP human tumour cell line panel, 48 h
[1] = system: CAKI-1 renal
[2] = system: EKVX NSCLC
[3] = system: NCI-H23 lung
[4] = system: PC-3 prostate
[5] = system: OVCAR-3 ovarian
[6] = system: COLO 205 colon
[7] = system: NCI-H226 lung
[8] = system: SNB-19 CNS
[9] = system: MDA-MB-231 breast
[10] = system: T-47D breast

Row | Compound | TGI [1] | GI50 [2] | TGI [2] | GI50 [3] | TGI [3] | GI50 [4] | TGI [4] | GI50 [5] | GI50 [6] | TGI [6] | TGI [7] | GI50 [8] | TGI [8] | GI50 [9] | TGI [9] | GI50 [10] | TGI [10] | TGI [5] | GI50 [1] | GI50 [7]
1 | Cc1c2oc3c(C)ccc(C(=O)NC4C(=O)NC(C(C)C)C(=O)N5CCCC5C(=O)N(C)CC(=O)N(C)C(Cc5ccc(O)cc5)C(=O)OC4C)c3nc-2c(C(=O)NC2C(=O)NC(C(C)C)C(=O)N3CCCC3C(=O)N(C)CC(=O)N(C)C(Cc3ccc(O)cc3)C(=O)OC2C)c(N)c1=O (stereo not given) (I: TVP[Sar][NMeY] / II: TVP[Sar][NMeY]; ester I:1-I:C, II:1-II:C; linker I:N-II:N via Actinocin(9to1); configuration not given here) | > 1 µM | 0.231 µM and 0.102 µM | > 1 µM | 0.0493 µM and 0.0128 µM | 0.287 µM and 0.0772 µM | 0.0407 µM and 0.0115 µM | > 1 µM | 0.0176 µM and 0.00646 µM | 0.0175 µM and 0.00568 µM | 0.216 µM and 0.0889 µM | > 0.539 µM | 0.00797 µM and 0.00332 µM | > 1 µM | 0.136 µM and 0.0318 µM | > 1 µM | 0.0103 µM and 0.00457 µM | > 0.334 µM |  |  | 
2 | BrC1=C(Br)C2(SCCS2)[C@H]2C[C@@H]1c1ccccc12 | > 100 µM |  | > 100 µM |  | > 100 µM |  | > 100 µM |  |  | > 100 µM | > 100 µM |  | > 100 µM |  | > 100 µM |  | > 100 µM | > 100 µM |  | 
3 | NS(=O)(=O)c1ccc(/C=C/c2ccc(O)c(O)c2)cc1 | > 100 µM |  | 64 µM | 25.9 µM | 79.3 µM |  | 83.5 µM |  |  | 53.8 µM | 60.2 µM |  | > 100 µM |  | 64.6 µM |  | 53.1 µM | > 100 µM | 29.1 µM | 14 µM
4 | N#C[C@H](c1ccccn1)c1nc2ccccc2nc1Cl | > 100 µM |  | > 100 µM |  | > 100 µM |  | > 100 µM |  |  | > 100 µM | > 100 µM |  | > 100 µM |  | > 100 µM |  | > 100 µM | > 100 µM |  | 
5 | O=c1[nH]nnc2c1sc1ncccc12 | > 100 µM |  | > 100 µM |  | > 100 µM |  | > 100 µM |  |  | > 100 µM | > 100 µM |  | > 100 µM |  | > 100 µM |  | > 100 µM | > 100 µM |  | 
6 | COc1ccc(C2SC(N)=Nc3c2c(C)nn3C(=O)c2ccncc2)cc1OC (stereo not given) | > 10 µM |  | > 10 µM |  | > 10 µM |  | > 10 µM |  |  | > 10 µM | > 10 µM |  | > 10 µM |  | > 10 µM |  | > 10 µM | > 10 µM |  | 
7 | Nc1c(C(=O)O)nnc2ccc(Cl)cc12 | > 100 µM |  | > 100 µM |  | > 100 µM |  | > 100 µM |  |  | > 100 µM | > 100 µM |  | > 100 µM |  | > 100 µM |  | > 100 µM | > 100 µM |  | 
8 | COC[C@@H](N=CC(C)(C)C)C(C)C | > 100 µM |  | > 100 µM |  | > 100 µM |  | > 100 µM |  |  | > 100 µM | > 100 µM |  | > 100 µM |  | > 100 µM |  | > 100 µM | > 100 µM |  | 
9 | [N-]=[N+]=Nc1c([N+](=O)[O-])c(=O)n(-c2ccccc2)c2ccccc12 | 56.3 µM |  | 64.5 µM |  | 60.7 µM |  | 83.9 µM |  |  | 42.3 µM | 96.9 µM |  | > 100 µM |  | 59.2 µM |  | > 100 µM | 22.7 µM |  | 
10 | Brc1ccc2[nH]cc(-c3csc(-c4c[nH]c5ccccc45)n3)c2c1 | 9.2 µM |  | 12 µM |  | 8.21 µM |  | 10.2 µM |  |  | 7.72 µM | 4.56 µM |  | 9.6 µM |  | 6.37 µM |  | 26.9 µM | 11.8 µM |  | 
11 | O=S(=O)(O)CCCc1cccc2ccccc12 | > 100 µM |  | > 100 µM |  | > 100 µM |  | > 100 µM |  |  | > 100 µM | > 100 µM |  | > 100 µM |  | > 100 µM |  | > 100 µM | > 100 µM |  | 
12 | COc1cc(C2c3cc4c(cc3OC(N3CCCCC3)C2C)OCO4)cc(OC)c1O (stereo not given) | 25.2 µM |  | > 83.4 µM |  | > 66.9 µM |  | 22.2 µM |  |  | 38.6 µM | > 64.2 µM |  | 53.7 µM |  | 28.1 µM |  | > 60.2 µM | 19.8 µM |  | 
13 | N#Cc1n[nH]n(-c2ccc(Br)cc2)c1=O | > 100 µM |  | > 100 µM |  | > 100 µM |  | > 100 µM |  |  | > 100 µM | > 100 µM |  | > 100 µM |  | > 100 µM |  | > 100 µM | > 100 µM |  | 
14 | O=c1oc2ccc3ccccc3c2cc1-c1nc2ccccc2s1 | > 100 µM |  | > 100 µM |  | > 100 µM |  | > 100 µM |  |  | > 100 µM | > 100 µM |  | > 26.9 µM |  | > 100 µM |  | > 100 µM | > 100 µM |  | 
15 | O=C(O)C(O)C(O)C(O)C(O)c1nc2ccccc2s1 (stereo not given) | 33.5 µM |  | 35.8 µM |  | 66.1 µM |  | 30 µM |  |  | > 100 µM | 66.4 µM |  | 49.8 µM |  | 31.9 µM |  | 52.7 µM | 31.4 µM |  | 
16 | O=C1C=CC(=O)c2c1ccc1c3ccccc3n(CCCCCn3c4ccccc4c4ccc5c(c43)C(=O)C=CC5=O)c21 | 13.7 µM |  | > 94.3 µM |  | 32.8 µM |  | 33.9 µM |  |  | 34.9 µM | > 100 µM |  | > 100 µM |  | 46.8 µM |  | 24.5 µM | 34.4 µM |  | 
17 | COc1cc(OC)cc(Oc2nc3ccccc3nc2C(F)(F)F)c1 | > 100 µM |  | > 100 µM |  | > 100 µM |  | > 100 µM |  |  | > 100 µM | > 100 µM |  | > 100 µM |  | 94.9 µM |  | > 100 µM | > 100 µM |  | 
18 | NC(N)=NCCN1CC2CCC(CC2)C1 | > 100 µM |  | > 100 µM |  | > 100 µM |  | > 100 µM |  |  | > 100 µM | > 100 µM |  | > 100 µM |  | > 100 µM |  | > 100 µM | > 100 µM |  | 
